The values below come from patent US8598157B2, “5-alkynyl-pyridines” (Boehringer Ingelheim International GmbH, priority 2011, dated 2013).

The target of experiment [1] is PI3Kalpha (Homo sapiens (Human), UniProt P42336). The experiment in a line: Inhibition of PI3Kalpha-induced PIP-2 phosphorylation (filter-binding assay). Type of experiment: biochemical. The following applies: 33P-ATP, p85alpha/His-p110alpha, read-out: IC50 PI3Kα. The gist of the method:
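Radiometric filter-binding assay: PI3Kα (25 ng/well) preincubated 20 min at room temperature with compound and PIP2-containing lipid vesicles plus phosphotyrosine PDGFRβ peptide. Reaction started with cold ATP (1 μM final) and [33P]-ATP and run 120 min at room temperature; filter-captured radioactivity counted, IC50 from duplicate dilution series.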

The test system of experiment [2] is H460 cells. The experiment in a line: alamarBlue H460 cell assay (antiproliferative/cytotoxicity). The experiment is classed as cell-based. To be noted: NCI-H460; H460 human lung carcinoma cells. In outline:
(§1)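 After overnight attachment at 37 °C, cells receive a ten-point, 1:3 dilution series starting at 10 μM final, in duplicate, with untreated medium/DMSO controls. Following 5-6 days, alamarBlue is incubated 8 h and emission at 590 nm recorded.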

The test system of experiment [3] is MB453 cells. Briefly: alamarBlue MB453 cell assay (antiproliferative/cytotoxicity). Type of experiment: cell-based. To be noted: Homo sapiens; MDA MB 453 breast cancer cell line. The gist of the method:
as §1

The subject of experiment [4] is U87 cells. The experiment in a line: U87 cell assay (antiproliferative/cytotoxicity). Type of experiment: cell-based. To be noted: U-87MG human glioblastoma cells. The gist of the method:
as §1

Experiment [5] has as its system MCF7 cells. The experiment in a line: alamarBlue MCF7 cell assay (antiproliferative/cytotoxicity). The experiment is classed as cell-based. The following applies: MCF7 human breast cancer cell line. An excerpt:
The H460, MB453, U87, MCF7 and BT474 alamarBlue cell assays provide EC50 values indicative of the antiproliferative or cytotoxic effects of the compounds to respectively the H460 (human non small cell line cancer), MB-453 (breast cancer cell line), U87 (glioblastoma cell line), MCF7 (breast cancer cell line) and BT474 (breast cancer cell line). As known in the field, antiproliferative or cytotoxic effect against this cell lines would be expected to be indicative of activity in treating lung, breast and brain cancers. See R. Marone R et al. Biochim. Biophys. Acta. 2008 January; 1784(1):159-85. S. Yaguchi et al., J. Natl. Cancer Inst. 2006 Apr. 19; 98(8):545-56.
Method Type: Antiproliferative/Cytotoxicity
alamarBlue® is designed to provide a rapid and sensitive measure of cell proliferation and cytotoxicity in various human and animal cell lines. The assay is based on the reduction of alamarBlue in the reducing environment of living (metabolically active) cells. In the presence of added cytotoxic or antiproliferative compounds, the innate metabolic activity ceases.
AlamarBlue is soluble and stable in culture medium. Measurements are made fluorometrically by exciting at 530-560 nm and measuring emission at 590 nm. In reporting percent alamarBlue reduction by monitoring fluorescence, data are expressed as fluorescence emission intensity units as a function of time of incubation.
3. Equipment • 96-well plates, flat bottom (Falcon, Cat. No.: 353072) • 96-well plates, U-shaped (Costar, Cat. No.: 3799) • CO2-Incubator • Microplate Reader, Spectramax Plus, Molecular Devices 4. Typical Procedure • Day 0: Seed 3000 BT-474 cells (IMDM/5% FCS, 1% NEAA, 1% Sodiumpyruvat) in 150 μl medium into a 96-well plate, flat bottom (include mediumblank). Incubate plates at 37° C. in a CO2 incubator overnight. • Day 1: Dilute compounds to a concentration 40 μM->1:3 in medium, 10 dilution steps, in 96-well plates. • Add 50 μl per well of each dilution (total volume per well 200 μl; final conc. of cpds: 10 μM->1:3). If required, test further dilutions. • All concentrations are tested in duplicates. • Controls: Cells w/o cpd. (+50 μl medium/DMSO). • Cells are incubated with compounds for 5-6 days. • Day 6 or 7: Add 25 μl of alamarBlue solution to each well and incubate for 8 hours at 37° C. Measure fluorescence by exciting at 530-560 nm and measuring emission at 590 nm. 5. Evaluation • Subtract average value for medium blank from sample readings • Calculate EC50 using GraphPad Prism (Fifty)
(In general: The colour change of resazurin is a common sign of viable cells or microbes.)

Experiment [6] concerns BT474 cells. Briefly: alamarBlue BT474 cell assay (antiproliferative/cytotoxicity). Type of experiment: cell-based. To be noted: BT-474 human breast cancer cell line. In outline:
as §1

Sequence of PI3Kalpha (P42336 whole entry): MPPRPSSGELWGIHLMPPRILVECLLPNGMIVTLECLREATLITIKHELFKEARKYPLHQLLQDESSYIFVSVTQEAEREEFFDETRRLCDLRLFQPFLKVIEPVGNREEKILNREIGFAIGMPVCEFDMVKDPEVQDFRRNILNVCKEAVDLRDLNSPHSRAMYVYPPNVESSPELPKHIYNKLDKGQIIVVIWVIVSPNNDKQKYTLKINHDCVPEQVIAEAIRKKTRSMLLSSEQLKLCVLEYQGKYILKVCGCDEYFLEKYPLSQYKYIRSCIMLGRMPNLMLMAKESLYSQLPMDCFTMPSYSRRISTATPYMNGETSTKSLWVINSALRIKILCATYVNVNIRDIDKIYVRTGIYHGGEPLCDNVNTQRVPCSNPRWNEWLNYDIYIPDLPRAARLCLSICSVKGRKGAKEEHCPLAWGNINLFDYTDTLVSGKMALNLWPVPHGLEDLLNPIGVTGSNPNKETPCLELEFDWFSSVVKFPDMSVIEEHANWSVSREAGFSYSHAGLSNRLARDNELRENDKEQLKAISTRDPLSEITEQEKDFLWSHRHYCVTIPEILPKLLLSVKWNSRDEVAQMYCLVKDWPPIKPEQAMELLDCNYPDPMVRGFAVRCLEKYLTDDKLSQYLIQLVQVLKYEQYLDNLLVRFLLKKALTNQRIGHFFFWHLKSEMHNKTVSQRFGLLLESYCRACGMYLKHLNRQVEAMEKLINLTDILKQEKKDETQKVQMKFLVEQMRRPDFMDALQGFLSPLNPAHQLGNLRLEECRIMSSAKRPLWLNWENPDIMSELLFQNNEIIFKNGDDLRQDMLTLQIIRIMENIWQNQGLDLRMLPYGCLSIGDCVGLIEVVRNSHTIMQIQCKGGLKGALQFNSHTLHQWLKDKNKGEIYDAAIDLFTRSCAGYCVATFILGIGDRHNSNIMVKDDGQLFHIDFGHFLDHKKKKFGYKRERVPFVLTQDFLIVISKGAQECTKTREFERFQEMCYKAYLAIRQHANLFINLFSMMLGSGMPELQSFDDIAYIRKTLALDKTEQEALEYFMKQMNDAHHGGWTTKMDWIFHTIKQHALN

In the case of `Cc1ncc(C#Cc2c(C)ncnc2N2CCCCC2)cc1NS(=O)(=O)c1ccccc1` [Example I-63, N-[2-Methyl-5-(4-methyl-6-piperidin-1-yl-pyrimidin-5-ylethynyl)-pyridin-3-yl]-benzenesulfonamide], the IC50 – broadly, the point on the concentration scale where inhibition reaches its midpoint – in experiment [1] was 3 nM. Also, the EC50 (as a rule, the concentration giving half of the maximal effect) in experiment [2] is 308 nM; in experiment [3], 1330 nM; in experiment [4], 1300 nM; in experiment [5] it was 126 nM; in experiment [6], 4320 nM.
With `CCc1ncnc(N2CCN(C3CC3)CC2)c1C#Cc1cnc(C)c(NS(=O)(=O)c2ccc(F)cc2)c1` [Example I-28, N-{5-[4-(4-Cyclopropyl-piperazin-1-yl)-6-ethyl-pyrimidin-5-ylethynyl]-2-methyl-pyridin-3-yl}-4-fluoro-benzenesulfonamide], the IC50 in experiment [1] came to 5 nM. Further, the EC50 is 756 nM in experiment [2]; 1850 nM in experiment [3]; 14400 nM in experiment [4]; 10000 nM in experiment [5]; 10000 nM in experiment [6].
As to `Cc1ncc(C#Cc2c(C)ncnc2N2CCN(C)C(=O)C2)cc1NS(=O)(=O)c1ccccc1` [Example I-60, N-{2-Methyl-5-[4-methyl-6-(4-methyl-3-oxo-piperazin-1-yl)-pyrimidin-5-ylethynyl]-pyridin-3-yl}-benzenesulfonamide], in experiment [1], the IC50 turned out to be 2 nM. Also, the EC50 in experiment [2] was determined as 1250 nM; in experiment [3] it was 618 nM; in experiment [4] it was 945 nM; in experiment [5] it was 103 nM; in experiment [6], 1540 nM.
For the compound `Cc1ncc(C#Cc2c(C)ncnc2N2CCOCC2)cc1NS(=O)(=O)c1ccc(F)cc1` [Example I-30, 4-Fluoro-N-[2-methyl-5-(4-methyl-6-morpholin-4-yl-pyrimidin-5-ylethynyl)-pyridin-3-yl]-benzenesulfonamide], in experiment [1], the IC50 was 0.43 nM. Moreover, the EC50 in experiment [2] amounted to 230 nM; in experiment [3] it was 148 nM; in experiment [4] it was 385 nM; in experiment [5], 21 nM; in experiment [6], 122 nM.
As to `Cc1ncnc(N2CCOCC2)c1C#Cc1cncc(NS(=O)(=O)c2ccc(F)cc2F)c1` [Example I-20, 2,4-Difluoro-N-[5-(4-methyl-6-morpholin-4-yl-pyrimidin-5-ylethynyl)-pyridin-3-yl]-benzenesulfonamide], in experiment [1], the IC50 came out at 0.46 nM. Further, the concentration for a half-maximal effect (EC50) in experiment [2] was 391 nM; in experiment [3], 281 nM; in experiment [4], 521 nM; in experiment [5] it was 22 nM; in experiment [6], 153 nM.
Take `Cc1ncc(C#Cc2c(C)ncnc2N2CCOCC2)cc1NS(=O)(=O)c1ccoc1` [Example I-50, Furan-3-sulfonic acid [2-methyl-5-(4-methyl-6-morpholin-4-yl-pyrimidin-5-ylethynyl)-pyridin-3-yl]-amide]: in experiment [1], the 50% inhibitory concentration (IC50) was 1 nM. The EC50 in experiment [2] stood at 128 nM; in experiment [3] it was 239 nM; in experiment [4], 289 nM; in experiment [5], 16 nM; in experiment [6], 330 nM.
As to `Cc1ccccc1S(=O)(=O)Nc1cc(C#Cc2c(C)ncnc2N2CCOCC2)cnc1C` [Example I-11, 2-Methyl-N-[2-methyl-5-(4-methyl-6-morpholin-4-yl-pyrimidin-5-ylethynyl)-pyridin-3-yl]-benzenesulfonamide], the IC50 in experiment [1] stood at 1 nM. Moreover, the EC50 in experiment [2] came to 56 nM; in experiment [3] it was 298 nM; in experiment [4], 466 nM; in experiment [5], 190 nM; in experiment [6], 271 nM.
Consider `CCc1ncnc(N2CCN(S(C)(=O)=O)CC2)c1C#Cc1cnc(C)c(NS(=O)(=O)c2ccc(F)cc2)c1` [Example I-67, N-{5-[4-Ethyl-6-(4-methanesulfonyl-piperazin-l-yl)-pyrimidin-5-ylethynyl]-2-methyl-pyridin-3-yl}-4-fluoro-benzenesulfonamide], for which, in experiment [1], the IC50 was determined as 0.14 nM. Moreover, the EC50 in experiment [2] was 37 nM; in experiment [3], 54 nM; in experiment [4], 471 nM; in experiment [5], 9 nM; in experiment [6], 44 nM.
